# US20200306216A1, “CURE FOR ALZHEIMER'S DISEASE” (priority 2019, published 2020)
# Experiment: Single-patient clinical case: combination therapy for Alzheimer's disease
# Assay type: in vivo, human
# Settings: overall outcome as stated by applicant
# Procedure: A patient suffering from significant memory loss and vision loss was evaluated for treatment. The patient suffered a gradual decline in both short-term and long-term memory over at least three years. The patient also complained about vision loss over a period of about six years. The patient scored 11 out of 30 on a mental status exam, indicating dementia or other cognitive impairment. A clinical psychologist determined that the patient was oriented to person, but poorly oriented to place and time. […] The patient acknowledged having anger problems. The patent denied having anxiety, mania, or depression but acknowledged occasional suicidal ideation. They denied having any current intent to harm […]. The patient's spouse reported that the patient would sometimes sit and rock back-and-forth. They also reported that the patient would sometimes hit their head when upset. There was no evidence that the patient suffered from delusions or hallucinations, and there was no evidence of agnosia. The patient previously had coronary artery bypass surgery and also suffered from type 2 diabetes mellitus for multiple decades. […] The patient also suffered from hepatitis C, but was not previously treated. It was determined that the patient was only able to perceive light in both eyes. The patient's loss of vision was due to glaucoma and diabetic retinopathy. […]
row,Structure (SMILES),outcome of treatment of Alzheimer's disease
1,CC12CC3CC(C)(C1)CC(N)(C3)C2 [memantine],unsuccessful
2,COc1cc2c(cc1OC)C(=O)C(CC1CCN(Cc3ccccc3)CC1)C2 (centres unmarked) [donepezil],unsuccessful
